Reference: patent publication US20230295140A1, “INHIBITORS OF VAP-1” (Acucela Inc., priority 2021, published 2023)
Where a name gives a salt, the structure may show the parent alone.

Experiments:
Assay type in all cases: biochemical
rhVAP-1 = rhVAP-1 (Homo sapiens (Human), UniProt Q16853); experiment: VAP-1 fluorometric assay (Amplex Red/HRP, benzylamine substrate); details: class symbols, ranges defined in μM
Protocol: The capability of compounds described herein to inhibit the enzymatic activity of vascular adhesion protein-1 (VAP-1) was determined by fluorometric assay. The assay procedure provided by R&D Systems was modified slightly for use as an inhibitor screening assay. The assay measured the H2O2 generated from the oxidative deamination of benzylamine by rhVAP-1 by converting Amplex® Red to the fluorescent product, resorufin, via horseradish peroxidase (HRP) and H2O2. Reaction buffer was 10 mM NaHCO3, pH 7.4. A standard curve was prepared by serially diluting H2O2 in reaction buffer. A 10 μM solution of resorufin was prepared in reaction buffer and was dispensed to 2 wells. These wells served as positive control for maximum fluorescence. Reaction buffer was added to the individual wells so that the final volume in each well was 100 μL. Amplex Red was diluted to 1 mM in reaction buffer. A 10 U stock of HRP was prepared in reaction buffer. A reaction cocktail was prepared by mixing equal parts 1 mM Amplex Red with 10 U HRP with 3 parts reaction buffers. The reaction cocktail was added to the appropriate wells, so that that final concentration in the well was 0.05 mM Amplex Red and 0.5 U HRP. A 200 μM solution of benzylamine was prepared in reaction buffer. Benzylamine was added to the appropriate wells so that the final concentration was 50 μM. Inhibitors were diluted in DMSO to 20× and distributed to the appropriate wells. LJP-1207 served a positive control. rhVAP-1 was purchased from R&D Systems. The concentration used for each lot was determined so that the activity was equal to the first lot. Two wells were left blank as controls. The plate was incubated for 30 minutes at 37° C., protected from light under foil. The plate was read at 530/35 emission and 590/35 excitation. Data processing was performed using Excel and Prism software.
The capability of compounds described herein to inhibit the enzymatic activity of vascular adhesion protein-1 (VAP-1) was determined by fluorometric assay. The assay procedure provided by R&D Systems was modified slightly for use as an inhibitor screening assay. The assay measured the H2O2 generated from the oxidative deamination of benzylamine by rhVAP-1 by converting Amplex® Red to the fluorescent product, resorufin, via horseradish peroxidase (HRP) and H2O2. Amplex Red, HRP, Benzylamine, inhibitors (with DMSO as vehicle, 0.5% v/v) and rhVAP-1 were added to the wells. Assay was conducted in 10 mM NaHCO3, pH 7.4. A standard curve was prepared by serially diluting H2O2 in reaction buffer. The plate was incubated for 30 minutes at 37° C., protected from light under foil. The plate was read at 530/35 emission and 590/35 excitation. Data processing was performed using Prism software.

rhMAO-A = rhMAO-A (Homo sapiens (Human), UniProt P21397); experiment: MAO-Glo assay, MAO-A inhibition; details: class symbols, ranges defined in μM
Protocol: (§1) The capability of compounds described herein to inhibit MAO was determined using a modified Promega MAO-Glo™ assay kit. The substrate ((4S)-4,5-dihydro-2-(6-hydroxybenzothiazolyl)-4-thiazolecarboxylic acid) was converted by MAO to produce methyl ester luciferin. The luciferin was then converted by luciferase to produce oxyluciferin and light. The light was measured using a luminescence setting on the plate reader. A standard curve was prepared by serially diluting luciferin in reaction buffer. The standard kit reaction buffer was used—100 mM HEPES (pH 7.5), 5% glycerol. The substrate was dispensed into the wells so that the final concentration for MAO-A inhibition assay would be 10 μM and MAO-B inhibition assay would be […]. Inhibitors were diluted in DMSO to 4× and distributed to the appropriate wells. Clorgyline and Deprenyl served as positive controls. rhMAO-A and rhMAO-B were purchased from Sigma. MAO-A or MAO-B was added to the appropriate wells. The plate was incubated for 1 hour, at room temperature with gentle shaking (90 rpm). The detection agent was added at equal volume (48 μL detection agent to 48 μL reaction). The plate was incubated for 20 minutes, at room temperature with gentle shaking (90 rpm). The plate luminescence was read. Data processing was performed using Prism software.
(§2) The capability of compounds described herein to inhibit MAO was determined using a modified Promega MAO-Glo™ assay. Test compounds, substrate and enzyme were incubated per manufacturer instructions for 1 hour, at room temperature with gentle shaking (90 rpm) before addition of detection agent. The detection agent was added at equal volume (48 μL detection agent to 48 μL reaction). The plate was incubated for 20 minutes, at room temperature with gentle shaking (90 rpm). The plate luminescence was read. Data processing was performed using Prism software.

rhMAO-B = rhMAO-B (Homo sapiens (Human), UniProt P27338); experiment: MAO-Glo assay, MAO-B inhibition
Protocol: as §1, §2

[1] = class symbols, ranges defined in μM

Sequence of rhVAP-1 (Q16853 whole entry): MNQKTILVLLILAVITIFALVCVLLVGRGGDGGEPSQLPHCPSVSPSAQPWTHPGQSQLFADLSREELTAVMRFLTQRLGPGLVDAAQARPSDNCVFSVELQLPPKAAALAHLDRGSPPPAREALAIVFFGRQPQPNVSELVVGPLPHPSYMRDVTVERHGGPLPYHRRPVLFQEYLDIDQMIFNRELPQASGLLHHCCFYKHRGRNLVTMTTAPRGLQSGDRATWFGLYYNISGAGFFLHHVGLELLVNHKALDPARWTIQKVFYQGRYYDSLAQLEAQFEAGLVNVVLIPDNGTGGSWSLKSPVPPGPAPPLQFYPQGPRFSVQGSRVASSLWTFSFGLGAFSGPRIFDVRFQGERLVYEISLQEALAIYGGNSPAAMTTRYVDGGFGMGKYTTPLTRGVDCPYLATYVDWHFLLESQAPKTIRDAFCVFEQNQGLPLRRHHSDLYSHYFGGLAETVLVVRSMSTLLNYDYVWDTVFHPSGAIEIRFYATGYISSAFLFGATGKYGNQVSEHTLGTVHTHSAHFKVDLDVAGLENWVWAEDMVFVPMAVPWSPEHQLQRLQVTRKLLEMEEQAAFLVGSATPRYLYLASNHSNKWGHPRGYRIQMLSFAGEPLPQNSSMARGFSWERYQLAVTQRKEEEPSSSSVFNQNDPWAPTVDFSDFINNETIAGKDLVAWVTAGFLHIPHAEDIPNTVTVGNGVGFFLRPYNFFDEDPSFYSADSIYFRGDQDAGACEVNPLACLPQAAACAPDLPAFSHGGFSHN
Sequence of rhMAO-B (P27338 whole entry): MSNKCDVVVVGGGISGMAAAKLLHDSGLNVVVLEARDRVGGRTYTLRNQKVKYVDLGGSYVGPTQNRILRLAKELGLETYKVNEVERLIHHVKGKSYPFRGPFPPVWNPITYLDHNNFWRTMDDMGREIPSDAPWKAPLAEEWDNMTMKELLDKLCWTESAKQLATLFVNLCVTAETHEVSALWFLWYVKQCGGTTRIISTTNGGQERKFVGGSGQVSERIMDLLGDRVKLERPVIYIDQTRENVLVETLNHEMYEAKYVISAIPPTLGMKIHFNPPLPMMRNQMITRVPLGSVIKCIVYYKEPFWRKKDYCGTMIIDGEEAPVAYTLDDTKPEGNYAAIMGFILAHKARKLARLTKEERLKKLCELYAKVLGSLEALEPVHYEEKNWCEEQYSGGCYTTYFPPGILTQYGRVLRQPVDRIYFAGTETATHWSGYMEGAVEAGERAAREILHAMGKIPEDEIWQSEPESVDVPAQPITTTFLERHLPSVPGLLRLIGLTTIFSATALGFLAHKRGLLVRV
Sequence of rhMAO-A (P21397 whole entry): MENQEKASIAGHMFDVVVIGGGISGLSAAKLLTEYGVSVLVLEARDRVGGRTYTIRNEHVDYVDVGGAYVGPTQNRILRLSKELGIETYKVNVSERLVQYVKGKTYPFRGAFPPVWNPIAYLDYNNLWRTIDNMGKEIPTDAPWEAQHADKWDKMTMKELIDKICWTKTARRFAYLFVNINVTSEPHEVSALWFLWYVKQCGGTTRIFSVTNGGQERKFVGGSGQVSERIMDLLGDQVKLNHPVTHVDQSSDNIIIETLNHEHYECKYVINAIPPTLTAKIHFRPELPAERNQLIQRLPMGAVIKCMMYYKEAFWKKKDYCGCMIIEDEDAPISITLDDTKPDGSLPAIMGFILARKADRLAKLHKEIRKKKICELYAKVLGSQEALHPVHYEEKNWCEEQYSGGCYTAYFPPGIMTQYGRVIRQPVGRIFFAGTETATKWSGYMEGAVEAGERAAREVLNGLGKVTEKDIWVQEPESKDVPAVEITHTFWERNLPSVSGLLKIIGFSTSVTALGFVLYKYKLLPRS

| SMILES | IC50 (rhVAP-1) | IC50 (rhMAO-A) | IC50 (rhMAO-B; number printed in cell) | IC50 (rhMAO-B; [1]) |
| --- | --- | --- | --- | --- |
| COc1ccc(CNc2nc3ccc(OC/C(=C/F)CN)cc3o2)cc1 [Example 24, (E)-6-((2-(aminomethyl)-3-fluoroallyl)oxy)-N-(4-methoxybenzyl)benzo[d]oxazol-2-amine 4-methylbenzenesulfonate] | < 0.1 µM | 10 to 30 µM | 0.637 µM | – |
| COc1cccc(CNc2nc3ccc(OC/C(=C/F)CN)cc3o2)c1 [Example 25, (E)-6-((2-(aminomethyl)-3-fluoroallyl)oxy)-N-(3-methoxybenzyl)benzo[d]oxazol-2-amine 4-methylbenzenesulfonate] | < 0.1 µM | 1 to 10 µM | – | 0.1 to 1 µM |
| NC/C(=C\F)COc1ccc2nc(NCc3cccnc3)oc2c1 [Example 26, (E)-6-((2-(aminomethyl)-3-fluoroallyl)oxy)-N-(pyridin-3-ylmethyl)benzo[d]oxazol-2-amine 4-methylbenzenesulfonate] | < 0.1 µM | 10 to 30 µM | – | 1 to 10 µM |
| CCCCc1nc2ccc(C(=CF)CN)cc2o1 [Example 27, 2-(2-butylbenzo[d]oxazol-6-yl)-3-fluoroprop-2-en-1-amine 4-methylbenzenesulfonate] | < 0.1 µM | 1 to 10 µM | – | 10 to 30 µM |
| CCCCc1nc2ccc(COC/C(=C/F)CN)cc2o1 [Example 28, (E)-2-(((2-butylbenzo[d]oxazol-6-yl)methoxy)methyl)-3-fluoroprop-2-en-1-amine] | < 0.1 µM | 10 to 30 µM | – | < 0.1 µM |
| CCCCc1nc2ccc(C/C(=C/F)CN)cc2o1 [Example 31, (Z)-2-((2-butylbenzo[d]oxazol-6-yl)methyl)-3-fluoroprop-2-en-1-amine] | < 0.1 µM | 10 to 30 µM | – | 1 to 10 µM |
| CCCCc1nc2ccc(OCC(CN)=C(F)F)cc2o1 [Example 32, 2-(((2-butylbenzo[d]oxazol-6-yl)oxy)methyl)-3,3-difluoroprop-2-en-1-amine hydrochloride] | < 0.1 µM | 10 to 30 µM | – | 10 to 30 µM |
| CC1CN(c2nc3ccc(OC/C(=C/F)CN)cc3o2)C1 [Example 33, (E)-3-fluoro-2-(((2-(3-methylazetidin-1-yl)benzo[d]oxazol-6-yl)oxy)methyl)prop-2-en-1-amine 4-methylbenzenesulfonate] | < 0.1 µM | 10 to 30 µM | – | 0.1 to 1 µM |
| NC/C(=C\F)COc1ccc2nc(C34CCC(CC3)CC4)oc2c1 [Example 34, (E)-2-(((2-(bicyclo[2.2.2]octan-1-yl)benzo[d]oxazol-6-yl)oxy)methyl)-3-fluoroprop-2-en-1-amine 4-methylbenzenesulfonate] | < 0.1 µM | 10 to 30 µM | – | 0.1 to 1 µM |
| NC/C(=C\F)COc1ccc2nc(CCCCc3ccccc3)oc2c1 [Example 35, 4-methylbenzenesulfonate] | < 0.1 µM | 10 to 30 µM | – | < 0.1 µM |
| CC1(C)CCC(c2nc3ccc(OC/C(=C/F)CN)cc3o2)CC1 [Example 36, (E)-2-(((2-(4,4-dimethylcyclohexyl)benzo[d]oxazol-6-yl)oxy)methyl)-3-fluoroprop-2-en-1-amine 4-methylbenzenesulfonate] | < 0.1 µM | 10 to 30 µM | – | 0.1 to 1 µM |
| NC/C(=C\F)COc1ccc2nc(C3CCCC3)oc2c1 [Example 37, (E)-2-(((2-cyclopentylbenzo[d]oxazol-6-yl)oxy)methyl)-3-fluoroprop-2-en-1-amine 4-methylbenzenesulfonate] | < 0.1 µM | 1 to 10 µM | – | 0.1 to 1 µM |
| CCCCc1nc2ccc(OCCC(=CF)CN)cc2o1 [Example 38, 4-((2-butylbenzo[d]oxazol-6-yl)oxy)-2-(fluoromethylene)butan-1-amine 4-methylbenzenesulfonate] | < 0.1 µM | 0.1 to 1 µM | – | < 0.1 µM |
| CC(C)(C)Nc1nc2ccc(OC/C(=C/F)CN)cc2o1 [Example 39, (E)-6-((2-(aminomethyl)-3-fluoroallyl)oxy)-N-(tert-butyl)benzo[d]oxazol-2-amine 4-methylbenzenesulfonate] | < 0.1 µM | 10 to 30 µM | – | 1 to 10 µM |
